Values joined by “and” are separate entries in the source; they are usually repeats but may differ in a detail not shown here. Identical values can stand only once. “Also recorded” adds a separate entry of the source.
How the values were obtained:
[1] = tested on: NL-HX-ADA (molecularly cloned macrophage-tropic type of HIV-1); assay: Extended dose response for inactivation of HIV-1 by CTC96, fluorescent focus assay in PBMCs; assay type: cell-based; settings: 1 hour
Method: • Stock virus: NL-HX-ADA ˜5.5 μg/ml p24 (This is a molecularly cloned macrophage-tropic type of HIV-1). Virus was used to infect cells at 1:4,000 final dilution (˜1.4 ng/ml p24). Stock CTC-96: 10 mg/ml prepared directly in RPMI 1640 Method: Concentrated stock solution of virus was treated for 1 hour with equal volume of medium containing the drug at the indicated concentrations (1:2 dilution). The virus/drug mixture was then diluted 1,000-fold (1:2,000 dilution) and then added to an equal volume of PHA-activated humans PBMCs (1:4,000 final dilution) to allow virus replication to occur. The extent of infection was measured after 4 days by a fluorescent focus assay and compared to that of a control culture not containing any drug.

[2] = Mouse mortality, survival and weight change in the HPV-11 xenograft SCID mouse experiment; assay type: in vivo, scid/scid mice; settings: for Mouse Status at the end of the Experiment: Alive / Mouse Status at the end of the Experiment: Dead: of 12 mice
Description: Each experiment was done in quadruplicate. Twelve mice were used in each replicate. For each replicate, the four treatment groups were made of 3 mice (3 animals per cage). Each mouse received under the skin of each flank one HPV-11-infected foreskin fragment. Two foreskin donors were used, one for the fragments implanted under the left flank and a different one for the fragments implanted under the right flank. The HPV-11-infected grafts were left to grow for 12 weeks, while the mice weights were monitored every other week. At the end of the 12 weeks, the animals were sacrificed and the grafts recovered, measured and processed.
Six to 7 week old male scid/scid mice were used
The animals were monitored weekly. They were weighed at the time of grafting, and every other week during the 12 weeks of the experiment.
Animals were to be prematurely euthanitized if during monitoring any of the following criteria were met: • greater than 10% weight loss; • bleeding or bruising; • inability to maintain righting reflex; • inability to move about; • inability to eat or drink; • tumor greater than 30% of the animal's body weight.
The animals were otherwise sacrificed by cervical dislocation 12 weeks after graft implantation. Length, width, and height of the graft were measured and recorded. The graft were then removed and split in at least two parts. One part was fixed in buffered formalin. The other part was either left as is, or subdivided for subsequent analyses in as many fragments as size permitted. These fragments were placed in a sterile labelled vial and frozen in liquid nitrogen before being transferred to a −80° C. freezer.
Those animals dying unexpectedly before the date of the scheduled euthanasia had their grafts measured and fixed in formalin, if body decomposition was not too advanced.

[3] = tested on: NL-HX-ADA (macrophage-tropic isolate) Virus; assay: Inactivation of HIV stock by 1 hr drug treatment, then PBMC infection, fluorescent focus assay (NL-HX-ADA); assay type: cell-based, Human Immunodeficiency Virus (HIV); settings: for Average # infected cells/area / # infected cells/area (~500 cells): 4 days; for # infected cells/area (~500 cells): single area counts
Method: In a study of the prophylactic effects of Compound 96 on Human Immunodeficiency Virus (HIV), virus stock solutions were inactivated by treatment with Compound 96. Stock solutions of viral types NL-HX-ADA having a p24 concentration of 4.1 μg/ml and NL-HX (P122) having a p24 concentration of 3.8 μg/ml were used for the study, along with a stock solution of Compound 96 having a concentration of 20 mg/ml in RPMI media.
Concentrated stock solution of viruses were treated for 1 hr with equal volume of medium containing the drug at the following concentrations:
(§1) After the 1 hr treatment period, the virus-drug solutions were diluted 1:1,000 with complete medium, and then mixed with an equal volume of Peripheral Blood Mononucleocyte (PBMC) cells, for a final dilution of virus and drug of 1:4,000.
(§2) The infected cultures were then incubated without any washing or other changes in media for 4 days (for the M-tropic NL-HX-ADA type) and 8 days (for the T-tropic NL-HX type). The cultures were then assayed for infection using standard fluorescent focus assays to quantitate infected cells.

[4] = tested on: NL-HX (T cell-tropic isolate) Virus; assay: Control infections: untreated NL-HX virus added to PBMC cultures containing the final dilution of the drug; assay type: cell-based, Human Immunodeficiency Virus (HIV); settings: for Control culture: # infected cells/area (~500 cells) / Control culture: Average # infected cells/area: untreated virus; for Control culture: # infected cells/area (~500 cells): single area counts
Method: as §1, §2
Control infections were performed by adding untreated viruses at a p24 concentration of 1 ng/ml into cultures containing the final dilution of the drug. This controlled for any residual effect the diluted drug may have on the health of the PBMC culture and their ability to replicate virus.

[5] = virus treated 1 hr at 0.625 mg/ml
[6] = virus treated 1 hr at 1.25 mg/ml
[7] = virus treated 1 hr at 2.5 mg/ml

## CC1=CC(C)=[N+]2CC[N+]3=C(C)C=C(C)[O][Co-4]23([n+]2cc[nH]c2C)([n+]2cc[nH]c2C)[O]1.[Br-] [Compound 96]
[1]; Batch A: [CTC96] during incubation with virus 5 mg/ml (initial 10 mg/ml; after final dilution 2.5 ng/ml)
  % Neutralization: 100%
[1]; Batch B: [CTC96] during incubation with virus 2.5 mg/ml (initial 5 mg/ml; after final dilution 1.25 ng/ml)
  % Neutralization: 100%
[1]; Batch C: [CTC96] during incubation with virus 1.25 mg/ml (initial 2.5 mg/ml; after final dilution 0.61 ng/ml)
  % Neutralization: 100%
[1]; Batch D: [CTC96] during incubation with virus 0.625 mg/ml (initial 1.25 mg/ml; after final dilution 0.31 ng/ml)
  % Neutralization: 100%
[1]; Batch E: [CTC96] during incubation with virus 0.312 mg/ml (initial 0.6 mg/ml; after final dilution 0.156 ng/ml)
  % Neutralization: 83%
[1]; Batch F: [CTC96] during incubation with virus 0.156 mg/ml (initial 0.3 mg/ml; after final dilution 0.078 ng/ml)
  % Neutralization: 63%
[1]; Batch G: [CTC96] during incubation with virus 0.078 mg/ml (initial 0.156 mg/ml; after final dilution 0.039 ng/ml)
  % Neutralization: 55%
[1]; Batch H: [CTC96] during incubation with virus 0.039 mg/ml (initial 0.078 mg/ml; after final dilution 0.019 ng/ml)
  % Neutralization: 18%
[1]; Batch I: [CTC96] during incubation with virus 0.019 mg/ml (initial 0.039 mg/ml; after final dilution 0.009 ng/ml)
  % Neutralization: 1%
[1]; Batch J: [CTC96] during incubation with virus 0.009 mg/ml (initial 0.019 mg/ml; after final dilution 0.0045 µg/ml)
  % Neutralization: 2%
[1]; Batch K: [CTC96] during incubation with virus 0.0045 mg/ml (initial 0.009 mg/ml; after final dilution 0.0023 ng/ml)
  % Neutralization: 1%
[2]; CTC 96 0.05%
  Mouse Survival, Lower Quartile: 84.00 days
  Mouse Survival, Means: 83.167 days
  Mouse Survival, Median: 84.00 days
  Mouse Survival, Upper Quartile: 84.00 days
  Mouse Weight Changes during the Experiment, Lower Quartile: 12.32%
  Mouse Weight Changes during the Experiment, Means: 13.12%
  Mouse Weight Changes during the Experiment, Median: 14.16%
  Mouse Weight Changes during the Experiment, Upper Quartile: 15.62%
  Mouse Status at the end of the Experiment: Alive: 11
  Mouse Status at the end of the Experiment: Dead: 1
[2]; CTC 96 0.2%
  Mouse Survival, Lower Quartile: 57.50 days
  Mouse Survival, Means: 69.83 days
  Mouse Survival, Median: 84.00 days
  Mouse Survival, Upper Quartile: 84.00 days
  Mouse Weight Changes during the Experiment, Lower Quartile: 11.48%
  Mouse Weight Changes during the Experiment, Means: 15.77%
  Mouse Weight Changes during the Experiment, Median: 11.77%
  Mouse Weight Changes during the Experiment, Upper Quartile: 24.80%
  Mouse Status at the end of the Experiment: Alive: 8
  Mouse Status at the end of the Experiment: Dead: 4
[2]; CTC 96 1%
  Mouse Survival, Lower Quartile: 84.00 days
  Mouse Survival, Means: 84.00 days
  Mouse Survival, Median: 84.00 days
  Mouse Survival, Upper Quartile: 84.00 days
  Mouse Weight Changes during the Experiment, Lower Quartile: 5.926%
  Mouse Weight Changes during the Experiment, Means: 9.96%
  Mouse Weight Changes during the Experiment, Median: 9.00%
  Mouse Weight Changes during the Experiment, Upper Quartile: 12.40%
  Mouse Status at the end of the Experiment: Alive: 12
  Mouse Status at the end of the Experiment: Dead: 0
[2]; all treatment groups, drug used only to inactivate HPV-11 in vitro
  effect on mouse weight gain: no effect
[2]; all treatment groups, drug used only to inactivate HPV-11 in vitro, listed as CTC 96
  effect on mouse mortality (number of deaths, length of survival): no differences among the treatment groups; also recorded: no effect
[3]; any drug-treated sample vs control infection (800-1200 infected cells per well)
  reduction in infectivity: ≥ 1,000 fold
[3]; any of the drug-treated samples
  infected cells when the entire well was scanned: No infected cells were detected
[3]; even at the lowest concentration of drug tested (0.625 mg/ml), 1 hr treatment
  inactivation of treated virus: completely inactivated
[3]; [5]
  Average # infected cells/area: 0 cells/area
  # infected cells/area (~500 cells): 0 cells/area
[3]; [6]
  Average # infected cells/area: 0 cells/area
  # infected cells/area (~500 cells): 0 cells/area
[3]; [7]
  Average # infected cells/area: 0 cells/area
  # infected cells/area (~500 cells): 0 cells/area
[3]; virus treated 1 hr at 5 mg/ml
  Average # infected cells/area: 0 cells/area
  # infected cells/area (~500 cells): 0 cells/area
[3]; virus treated 1 hr at 10 mg/ml
  Average # infected cells/area: 0 cells/area
  # infected cells/area (~500 cells): 0 cells/area
[4]; even at the highest concentration tested (5 μg/ml)
  toxicity or inhibition in control cultures receiving the diluted drugs: No toxicity or inhibition
[4]; culture with final dilution of the 0.625 mg/ml (residual 0.3 μg/ml)
  Control culture: # infected cells/area (~500 cells): 11 cells/area and 10 cells/area
[4]; culture with final dilution of the 1.25 mg/ml (residual 0.6 μg/ml)
  Control culture: # infected cells/area (~500 cells): 9 cells/area and 8 cells/area and 11 cells/area and 10 cells/area
[4]; culture with final dilution of the 2.5 mg/ml column (residual 1.25 μg/ml)
  Control culture: # infected cells/area (~500 cells): 10 cells/area and 11 cells/area
[4]; culture with final dilution of the 5 mg/ml column (residual 2.5 μg/ml)
  Control culture: # infected cells/area (~500 cells): 10 cells/area and 8 cells/area and 9 cells/area
[4]; culture with final dilution of the 10 mg/ml column (residual 5 μg/ml)
  Control culture: # infected cells/area (~500 cells): 10 cells/area and 9 cells/area and 11 cells/area
[4]; final dilution of the 0.625 mg/ml column (residual 0.3 μg/ml)
  Control culture: Average # infected cells/area: 10.3 cells/area
[4]; final dilution of the 1.25 mg/ml column (residual 0.6 μg/ml)
  Control culture: Average # infected cells/area: 9.5 cells/area
[4]; final dilution of the 2.5 mg/ml column (residual 1.25 μg/ml)
  Control culture: Average # infected cells/area: 10.3 cells/area
[4]; final dilution of the 5 mg/ml column (residual 2.5 μg/ml)
  Control culture: Average # infected cells/area: 8.8 cells/area
[4]; final dilution of the 10 mg/ml column (residual 5 μg/ml)
  Control culture: Average # infected cells/area: 9.8 cells/area

Reference: patent US20070259866A1, “Method of Adenovirus, HIV and HPV Prophylaxis” (priority 1999, published 2007)
